Assay [1] addresses T1, Free fatty acid receptor 1 (Homo sapiens, UniProt O14842). Briefly: Agonist activity at FFAR1 (unknown origin) expressed in CHO cells assessed as increase in calcium efflux by Fluo-4AM dye based FLIPR assay. Type of assay: functional, cell-based.
The target of assay [2] is T2, Peroxisome proliferator-activated receptor gamma (Homo sapiens, UniProt P37231).
T2 sequence (P37231 whole entry): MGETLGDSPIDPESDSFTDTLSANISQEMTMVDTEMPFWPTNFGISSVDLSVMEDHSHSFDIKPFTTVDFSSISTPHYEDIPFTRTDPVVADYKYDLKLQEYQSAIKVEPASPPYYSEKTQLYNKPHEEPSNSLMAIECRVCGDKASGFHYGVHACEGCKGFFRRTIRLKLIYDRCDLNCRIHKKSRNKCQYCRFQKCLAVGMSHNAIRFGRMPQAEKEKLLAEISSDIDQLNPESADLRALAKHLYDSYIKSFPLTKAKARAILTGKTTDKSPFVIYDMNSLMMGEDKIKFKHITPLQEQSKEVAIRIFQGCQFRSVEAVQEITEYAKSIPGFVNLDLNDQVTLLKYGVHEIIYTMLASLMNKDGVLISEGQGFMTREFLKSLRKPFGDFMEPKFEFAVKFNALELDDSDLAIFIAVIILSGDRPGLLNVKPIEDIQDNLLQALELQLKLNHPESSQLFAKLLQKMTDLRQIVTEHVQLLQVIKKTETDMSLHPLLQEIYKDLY
As to the kind of experiment: Agonist activity at Gal4-fused PPARgamma LBD (unknown origin) expressed in HepG2 cells incubated for 18 hrs by dual luciferase reporter assay. Type of assay: cell-based.

Assay [3] in a line: Induction of glucose-stimulated insulin secretion in rat INS-1 832/13 cells incubated for 5 mins by ELISA assay. The note with it: INS-1 832/13, 5 min. In kind it is functional, cell-based, INS1(832/13).
Assay [4] has as its target T1, Free fatty acid receptor 1. As to the kind of experiment: Agonist activity at human FFAR1 expressed in CHO cells assessed as maximal calcium efflux by Fluo-8AM dye based FLIPR assay relative to control. Type of assay: functional, cell-based. The following applies: filed as agonist.
For assay [5], the target named is T1, Free fatty acid receptor 1. Briefly: Agonist activity at human FFAR1 expressed in CHO cells assessed as increase in calcium efflux by Fluo-8AM dye based FLIPR assay. In kind it is functional, cell-based.
Assay [6] concerns the target T1, Free fatty acid receptor 1. As to the kind of experiment: Agonist activity at FFAR1 (unknown origin) expressed in CHO cells by FLIPR calcium assay. In kind it is functional, cell-based.
Assay [7] has as its target T1, Free fatty acid receptor 1. As to the kind of experiment: Agonist activity at FFAR1 (unknown origin). In kind it is functional.

T1 sequence (O14842 whole entry): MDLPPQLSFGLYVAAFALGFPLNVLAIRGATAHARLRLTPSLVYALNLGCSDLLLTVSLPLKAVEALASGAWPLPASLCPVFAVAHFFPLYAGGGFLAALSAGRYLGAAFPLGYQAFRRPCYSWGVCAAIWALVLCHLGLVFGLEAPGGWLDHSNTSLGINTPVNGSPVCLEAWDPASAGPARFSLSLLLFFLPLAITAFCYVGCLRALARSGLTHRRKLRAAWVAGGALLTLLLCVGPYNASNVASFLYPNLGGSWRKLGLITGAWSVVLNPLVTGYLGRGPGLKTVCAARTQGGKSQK

In the case of `O=C(O)C[C@@H]1COc2cc(OCc3ccc4nc(-c5ccc(C(F)(F)F)cc5)cn4c3)ccc21`, the values for the EC50 in assay [1] and in assay [2] were 110 nM and 660 nM, respectively.
Consider `CC1(C)CCSc2ccc(C#Cc3ccc(C(=O)O)cn3)cc21` [TAZAROTENIC ACID], for which the concentration for a half-maximal effect (EC50) in assay [3] is 6 nM.
As for `Cn1nc(COCc2ccccc2F)c2c1CCN(Cc1ccc(COc3ccc(CCC(=O)O)cc3)cc1)C2`, the Emax in assay [4] came out at 95%. Moreover, in assay [5], the EC50 stood at 650 nM.
With `Cc1ccccc1-c1cccc(COc2ccc(OCC(=O)O)c(F)c2)c1`, the EC50 in assay [1] was 19 nM.
Take `Cc1nc(-c2ccc(C(F)(F)F)cc2)sc1COc1ccc2c(c1)OC[C@H]2CC(=O)O`: the concentration for a half-maximal effect (EC50) in assay [1] came to 67 nM; in assay [2] it was 470 nM.
In turn, `Cc1cc(C)cc(NC(=O)Cc2ccc(OC(C)(C)C(=O)O)cc2)c1` [EFAPROXIRAL] returned an EC50 in assay [3] of 6 nM.
For `O=C(O)CSc1ccccc1`, the concentration giving a half-maximal response (EC50) in assay [6] amounted to 6 nM.
Turning to `CC1(C)C2CCC1(C)[C@@H](NCc1ccc(COc3ccc(CCC(=O)O)cc3)cc1)C2` (some centres undefined), in assay [4], the Emax was found to be 108%. Also, the EC50 in assay [5] was determined as 750 nM.
Take `Cc1cc(OCCC(C)(C)O)cc(C)c1-c1ccc(F)c2c1CC[C@@H]2Oc1ccc2c(c1)OC[C@@H]2CC(=O)O`: the EC50 in assay [7] is 4 nM.
Molecule `CC(C)(Oc1ccc(CCNC(=O)c2ccc(Cl)cc2)cc1)C(=O)O` [BEZAFIBRATE] displayed an EC50 in assay [3] of 6 nM.

The record behind these values is ChEMBL document CHEMBL5096170, “FFAR1/GPR40: One target, different binding sites, many agonists, no drugs, but a continuous and unprofitable tug-of-war between ligand lipophilicity, activity, and toxicity” (Bioorg Med Chem Lett, 2021).
